{
  "source": "paper PMC3805977",
  "about": "(Scientific Reports, 2013)",
  "tested_on": "HIV-1",
  "test": "HIV-1 inhibition assay, isolates not separated",
  "type": "cell-based",
  "details": "across HIV-1 clades; effect augmented with streptavidin conjugation",
  "data": [
    {"sequence": "SSCSVRSSCRLYYSC", "values": [
      {"measurement": "HIV-1 inhibitory activity, in words", "result": "did not show any HIV-1 inhibition"}
    ]}
  ]
}
